Assay results from patent US11584714B2 (priority 2018, dated 2023).
pKi: −log10 of the molar value. Where a name gives a salt, the structure may show the parent alone. Read-outs that look alike come from different tables or passages of the source.

Tests used:
Format in all cases: biochemical
human α-thrombin = human α-thrombin (Homo sapiens (Human), UniProt P00734); assay: Enzymatic assay for thrombin (Boc-VPR-AMC substrate); details: for pKi: read-out: Thrombin Ki; for Ki: Thrombin Ki (μM)
mMASP-2 = mMASP-2 (Mus musculus (Mouse), UniProt Q91WP0); assay: Enzymatic inhibition of mMASP-2; details: read-out: mMASP-2 Ki
Sequence of mMASP-2 (Q91WP0 20-685): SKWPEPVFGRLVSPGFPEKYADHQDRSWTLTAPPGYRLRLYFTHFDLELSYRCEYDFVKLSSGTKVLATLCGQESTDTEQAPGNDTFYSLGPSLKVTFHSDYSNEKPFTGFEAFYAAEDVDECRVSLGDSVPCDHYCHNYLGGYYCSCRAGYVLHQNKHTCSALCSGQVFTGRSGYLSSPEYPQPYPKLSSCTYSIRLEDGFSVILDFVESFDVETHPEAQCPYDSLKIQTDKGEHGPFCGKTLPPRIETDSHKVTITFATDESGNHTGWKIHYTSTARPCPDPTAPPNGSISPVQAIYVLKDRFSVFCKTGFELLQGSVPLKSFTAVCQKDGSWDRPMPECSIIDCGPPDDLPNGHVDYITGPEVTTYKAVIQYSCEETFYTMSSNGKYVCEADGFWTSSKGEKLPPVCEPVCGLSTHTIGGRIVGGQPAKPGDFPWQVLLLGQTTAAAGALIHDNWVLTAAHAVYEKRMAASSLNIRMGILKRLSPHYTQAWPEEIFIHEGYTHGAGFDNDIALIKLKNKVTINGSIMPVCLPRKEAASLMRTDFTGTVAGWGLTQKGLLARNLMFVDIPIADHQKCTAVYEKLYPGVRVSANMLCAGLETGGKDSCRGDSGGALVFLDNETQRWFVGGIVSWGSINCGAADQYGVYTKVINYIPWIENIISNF

MASP-2 (CCP1-CCP2-SP) = MASP-2 (CCP1-CCP2-SP) (Homo sapiens (Human), UniProt O00187); assay: biochemical
Sequence of MASP-2 (CCP1-CCP2-SP) (O00187 445-686): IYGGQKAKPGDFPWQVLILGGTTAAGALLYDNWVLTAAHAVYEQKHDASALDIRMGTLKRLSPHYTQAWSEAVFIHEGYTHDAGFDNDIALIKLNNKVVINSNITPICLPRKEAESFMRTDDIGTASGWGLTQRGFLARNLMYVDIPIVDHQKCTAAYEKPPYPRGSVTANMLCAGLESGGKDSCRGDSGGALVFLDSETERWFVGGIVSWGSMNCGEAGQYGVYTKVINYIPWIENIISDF

[1] = selectivity for MASP-2 inhibition versus thrombin

Structure (SMILES) | pKi (human α-thrombin) | pKi (mMASP-2) | pKi (MASP-2 (CCP1-CCP2-SP)) | Ki (human α-thrombin) | pKi (MASP-2 (CCP1-CCP2-SP); read-out: MASP-2 Ki) | MASP-2 vs. thrombin selectivity (MASP-2 (CCP1-CCP2-SP); [1]) | MASP-2 vs. thrombin selectivity (MASP-2 (CCP1-CCP2-SP); MASP-2 inhibition versus thrombin)
C[C@H](NC(=O)[C@H](N)CCc1ccccc1)C(=O)NCc1cccnc1N [compound 1346, (R)-2-Amino-N—((S)-1-(((2-aminopyridin-3-yl)methyl)amino)-1-oxopropan-2-yl)-4-phenylbutanamide Dihydrochloride] | < 4.60 | < 4.60 | 4.60 to 5.00 | – | – | – | –
CC[C@H](NC(=O)[C@H]1C[C@H](c2ccccc2)CN1)C(=O)NCc1ccc(C(=N)N)cc1 [compound 1290, (2R,4R)—N—((S)-1-((4-carbamimidoylbenzyl)amino)-1-oxobutan-2-yl)-4-phenylpyrrolidine-2-carboxamide] | – | > 6.30 | – | 0.5 to 2.5 µM | > 6.30 | ** (≥5.0 to <25-fold) | –
C[C@@H](NC(=O)[C@H](N)CCc1ccccc1)C(=O)NCc1ccc2nc(N)[nH]c2c1 [compound 1170] | < 4.60 | > 4.60 | – | – | > 6.30 | – | **** (>100-fold)
C[C@H](NC(=O)[C@H]1C[C@H](c2ccccc2)CN1)C(=O)NCc1cc(Cl)ccc1-n1ncnn1 [compound 1394, (2R,4R)—N—((S)-1-((5-chloro-2-(2H-tetrazol-2-yl)benzyl)amino)-1-oxopropan-2-yl)-4-phenylpyrrolidine-2-carboxamide Trifluoroacetate] | – | < 4.60 | 5.00 to 5.60 | 10 to 25 µM | – | * (≥1.0 to <5.0-fold) | –
C[C@H](NC(=O)[C@H]1C[C@H](c2ccccc2)CN1)C(=O)NCc1ccc2nccn2c1 [compound 1434, (2R,4R)—N—((S)-1-((Imidazo[1,2-a]pyridin-6-ylmethyl)amino)-1-oxopropan-2-yl)-4-phenylpyrrolidine-2-carboxamide Dihydrochloride] | < 4.60 | 4.60 to 5.00 | 4.60 to 5.00 | – | – | – | –
Cc1nc(N)ccc1CNC(=O)[C@H](C)NC(=O)[C@H]1C[C@H](Cc2ccc(Cc3ccccc3)cc2)CN1 [compound 1427, (2R,4S)—N—((S)-1-(((6-Amino-2-methylpyridin-3-yl)methyl)amino)-1-oxopropan-2-yl)-4-(4-benzylbenzyl)pyrrolidine-2-carboxamide di-trifluoroacetate salt] | < 4.60 | > 6.30 | – | – | > 6.30 | **** (≥100-fold) | –
C[C@H](NC(=O)[C@H]1C[C@H](c2ccccc2)CN1)C(=O)NCc1ccc2c(N)noc2c1 [compound 1390, (2R,4R)—N—((S)-1-(((3-Aminobenzo[d]isoxazol-6-yl)methyl)amino)-1-oxopropan-2-yl)-4-phenylpyrrolidine-2-carboxamide Di-trifluoroacetate salt] | < 4.60 | < 4.60 | 5.00 to 5.60 | – | – | – | –
Cc1cc(Cl)cc(CNC(=O)[C@H](C)NC(=O)[C@H]2C[C@H](Cc3ccccc3)CN2)c1O [compound 1307, (2R,4S)-4-Benzyl-N-((S)-1-((5-chloro-2-hydroxy-3-methylbenzyl)amino)-1-oxopropan-2-yl)pyrrolidine-2-carboxamide Hydrochloride] | < 4.60 | > 6.30 | – | – | > 6.30 | **** (≥100-fold) | –
N=C(N)c1ccc(CNC(=O)[C@H](Cc2cnc[nH]2)NC(=O)[C@H](N)CCc2ccccc2)cc1 [compound 1332, (R)-2-Amino-N—((S)-1-((4-carbamimidoylbenzyl)amino)-3-(1H-imidazol-5-yl)-1-oxopropan-2-yl)-4-phenylbutanamide Di-trifluoroacetate] | < 4.60 | 5.00 to 5.60 | 4.60 to 5.00 | – | – | – | –
C[C@H](NC(=O)[C@H]1C[C@H](c2ccccc2)CN1)C(=O)NCc1ccc2c(N)n[nH]c2c1 [compound 1425, (2R,4R)—N—((S)-1-(((3-Amino-1H-indazol-6-yl)methyl)amino)-1-oxopropan-2-yl)-4-phenylpyrrolidine-2-carboxamide Trifluoroacetate salt] | < 4.60 | 5.60 to 6.30 | 5.00 to 5.60 | – | – | – | –
Cc1nc(N)ccc1CNC(=O)[C@H](C)NC(=O)[C@H]1C[C@@H](c2ccccc2)CCN1CCCC(=O)O [compound 1439, 4-((2R,4S)-2-(((S)-1-(((6-Amino-2-methylpyridin-3-yl)methyl)amino)-1-oxopropan-2-yl)carbamoyl)-4-phenylpiperidin-1-yl)butanoic acid Trifluoroacetate salt] | < 4.60 | 5.00 to 5.60 | – | – | > 6.30 | – | –
Cc1nc(N)ccc1CNC(=O)[C@H](C)NC(=O)[C@H]1C[C@H](Cc2cc3ccccc3s2)CN1 [compound 1458, (2R,4R)—N—((S)-1-(((6-Amino-2-methylpyridin-3-yl)methyl)amino)-1-oxopropan-2-yl)-4-(benzo[b]thiophen-2-ylmethyl)pyrrolidine-2-carboxamide Di-trifluoroacetate salt] | < 4.60 | > 6.30 | – | – | > 6.30 | **** (≥100-fold) | –
Cc1nc(N)ccc1CNC(=O)[C@H](C)NC(=O)[C@H]1C[C@H](Cc2cc(C(F)(F)F)cc(C(F)(F)F)c2)CN1 [compound 1424, (2R,4S)—N—((S)-1-(((6-Amino-2-methylpyridin-3-yl)methyl)amino)-1-oxopropan-2-yl)-4-(3,5-bis(trifluoromethyl)benzyl)pyrrolidine-2-carboxamide Di-trifluoroacetate salt] | > 6.30 | 5.60 to 6.30 | 5.60 to 6.30 | – | – | – | –
Cc1nc(N)ccc1CNC(=O)[C@H](C)NC(=O)[C@H]1C[C@@H](CCc2ccccc2)CN1 [compound 1322, (2R,4R)—N—((S)-1-(((6-Amino-2-methylpyridin-3-yl)methyl)amino)-1-oxopropan-2-yl)-4-phenethylpyrrolidine-2-carboxamide Dihydrochloride] | – | 5.60 to 6.30 | – | 10 to 25 µM | > 6.30 | *** (≥25 to <100-fold) | –
Cc1nc(N)ccc1CNC(=O)[C@H](C)NC(=O)[C@H]1C[C@H](Cc2ccc(OC(F)(F)F)c(Cl)c2)CN1 [compound 1455, (2R,4S)—N—((S)-1-(((6-Amino-2-methylpyridin-3-yl)methyl)amino)-1-oxopropan-2-yl)-4-(3-chloro-4-(trifluoromethoxy)benzyl)pyrrolidine-2-carboxamide Di-trifluoroacetate salt] | < 4.60 | > 6.30 | – | – | > 6.30 | **** (≥100-fold) | –
Cc1nc(N)ccc1CNC(=O)[C@H](C)NC(=O)[C@@H]1C[C@@H](Cc2ccccc2)CN1 [compound 1282, (2S,4R)—N—((S)-1-(((6-Amino-2-methylpyridin-3-yl)methyl)amino)-1-oxopropan-2-yl)-4-benzylpyrrolidine-2-carboxamide] | < 4.60 | < 4.60 | 4.60 to 5.00 | – | – | – | –
N=C(N)c1ccc(CNC(=O)[C@H](Cc2ccc(O)cc2)NC(=O)[C@H](N)CCc2ccccc2)cc1 [compound 1326, (R)-2-Amino-N—((S)-1-((4-carbamimidoylbenzyl)amino)-3-(4-hydroxyphenyl)-1-oxopropan-2-yl)-4-phenylbutanamide Di-trifluoroacetate salt] | – | > 6.30 | – | 10 to 25 µM | > 6.30 | *** (≥25 to <100-fold) | –
